# Test results reported in PMC6419571, “Discovery and lead optimisation of a potent, selective and orally bioavailable RARβ agonist for the potential treatment of nerve injury” (Bioorganic & Medicinal Chemistry Letters, 2019).
# Marks after values point to notes of the source that are not given here.
# Experiments:
# [1] = tested on: avulsed rats; test: Rodent model of avulsion: sensory and locomotor tasks; assay type: in vivo, rat; conditions: 3 mg/kg, po, three times a week
# Description: Rats were trained for two weeks prior to surgery in behavioural tasks and scores were recorded the day before surgery, the day after surgery and then weekly, for four weeks. Surgery was performed as previously described.[11], [12] In a sticky tape task, the time taken to sense and remove the tape from the paw of the lesioned forelimbs was measured. […] In locomotor tasks, the number of foot slips in a horizontal ladder made by the injured forelimb of the compound 10 treated rats was also measured. […] Further details and data on an in vivo model of crush injury will be presented in due course.
# Fig. 2 Effects of oral administration of compound 10 in sensory and locomotor functions in avulsed rats. Dose 3 mg/kg, po, three times a week, every other day. Data represent mean ± SEM of n = 8, **p ≤ 0.005, ***p ≤ 0.001. Two-way repeated-measures ANOVA, Tukey’s post-hoc test.
# [2] = target: Cyp450 2C19 (Homo sapiens, UniProt P33261); test: Cyp450 inhibition, 2C19; assay type: in vitro ADME; conditions: isoform 2C19
# Sequence of Cyp450 2C19 (P33261 whole entry, canonical isoform): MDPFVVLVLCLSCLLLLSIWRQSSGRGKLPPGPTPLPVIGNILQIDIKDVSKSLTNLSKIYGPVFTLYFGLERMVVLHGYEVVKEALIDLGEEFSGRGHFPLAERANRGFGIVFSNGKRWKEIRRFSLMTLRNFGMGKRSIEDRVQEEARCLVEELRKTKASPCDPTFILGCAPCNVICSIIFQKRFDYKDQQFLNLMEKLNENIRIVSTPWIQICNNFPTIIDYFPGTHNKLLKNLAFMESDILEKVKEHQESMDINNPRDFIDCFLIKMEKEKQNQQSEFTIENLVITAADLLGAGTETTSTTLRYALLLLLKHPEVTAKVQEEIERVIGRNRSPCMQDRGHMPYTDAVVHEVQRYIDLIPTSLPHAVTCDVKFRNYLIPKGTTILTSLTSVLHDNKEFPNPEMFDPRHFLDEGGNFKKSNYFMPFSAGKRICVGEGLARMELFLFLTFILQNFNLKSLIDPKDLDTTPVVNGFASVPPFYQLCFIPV
# [3] = LogD by shake flask method; assay type: physicochemical; conditions: pH 7.4
# [4] = target: T1, RARβ (Homo sapiens, UniProt P10826); test: Transactivation against the human RAR ligand-binding domains; assay type: cell-based
# T1 construct: expressed in transfected cells
# T1 sequence (P10826 183-417 limits assumed): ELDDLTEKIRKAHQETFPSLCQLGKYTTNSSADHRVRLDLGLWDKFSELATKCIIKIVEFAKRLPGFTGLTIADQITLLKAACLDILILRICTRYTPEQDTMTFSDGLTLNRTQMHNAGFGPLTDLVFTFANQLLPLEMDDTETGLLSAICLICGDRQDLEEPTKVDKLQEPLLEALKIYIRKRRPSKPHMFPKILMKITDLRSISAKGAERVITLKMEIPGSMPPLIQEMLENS
# Source text: The more drug-like template present in 10 translates into a good in vitro and in vivo profile for this RARβ agonist (Table 5).
# [5] = Solubility; assay type: physicochemical; conditions: pH 7.4, as the amorphous sodium salt
# [6] = Pharmacokinetics in dog; assay type: in vivo; parameters: Volume distribution ss: unit not given here
# [7] = target: HERG channels (Homo sapiens, UniProt Q12809); test: Binding assay for HERG channels; conditions: at 10 μM
# Sequence of HERG channels (Q12809 whole entry): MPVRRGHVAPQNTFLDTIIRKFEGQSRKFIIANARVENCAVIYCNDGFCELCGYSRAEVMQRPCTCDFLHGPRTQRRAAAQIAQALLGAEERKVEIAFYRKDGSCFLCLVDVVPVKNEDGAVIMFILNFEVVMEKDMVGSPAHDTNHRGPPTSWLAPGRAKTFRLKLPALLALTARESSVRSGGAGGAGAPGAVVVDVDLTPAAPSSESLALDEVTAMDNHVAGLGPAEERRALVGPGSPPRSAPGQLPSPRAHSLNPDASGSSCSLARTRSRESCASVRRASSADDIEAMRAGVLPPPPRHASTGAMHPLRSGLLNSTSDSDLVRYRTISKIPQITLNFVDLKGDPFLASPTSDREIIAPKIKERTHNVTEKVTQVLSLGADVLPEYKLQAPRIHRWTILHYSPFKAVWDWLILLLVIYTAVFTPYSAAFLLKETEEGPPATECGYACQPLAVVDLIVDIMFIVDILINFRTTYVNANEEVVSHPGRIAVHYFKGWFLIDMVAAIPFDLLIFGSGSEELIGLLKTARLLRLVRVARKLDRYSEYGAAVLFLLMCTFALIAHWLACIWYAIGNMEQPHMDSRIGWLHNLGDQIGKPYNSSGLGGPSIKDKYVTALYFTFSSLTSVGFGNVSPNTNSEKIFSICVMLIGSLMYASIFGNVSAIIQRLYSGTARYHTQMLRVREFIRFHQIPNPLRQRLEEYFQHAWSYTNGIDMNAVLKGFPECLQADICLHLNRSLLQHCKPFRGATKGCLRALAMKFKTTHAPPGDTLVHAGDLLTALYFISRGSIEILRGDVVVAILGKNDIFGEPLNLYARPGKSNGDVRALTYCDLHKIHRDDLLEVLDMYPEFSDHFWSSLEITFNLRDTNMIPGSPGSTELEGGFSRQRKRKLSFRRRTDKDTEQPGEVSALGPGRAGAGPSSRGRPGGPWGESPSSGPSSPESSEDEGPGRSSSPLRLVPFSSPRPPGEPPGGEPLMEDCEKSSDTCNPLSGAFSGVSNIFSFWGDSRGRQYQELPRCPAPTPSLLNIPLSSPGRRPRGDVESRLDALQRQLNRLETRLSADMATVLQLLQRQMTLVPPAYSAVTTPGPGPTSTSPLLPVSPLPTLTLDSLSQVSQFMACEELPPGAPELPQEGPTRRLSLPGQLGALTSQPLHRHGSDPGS
# [8] = Mouse plasma protein binding; assay type: in vitro ADME
# [9] = target: T2, RARγ (Mus musculus, UniProt P18911); test: RAR gamma transactivation assay (gal4-RAR LBD fusion, luciferase reporter, COS-7 cells); assay type: cell-based; conditions: mouse RAR ligand binding domain; Tables 1 and 4; read-out: γ EC50
# T2 construct: expressed in transfected cells; host or cells: COS-7
# T2 sequence (P18911 185-419 limits assumed): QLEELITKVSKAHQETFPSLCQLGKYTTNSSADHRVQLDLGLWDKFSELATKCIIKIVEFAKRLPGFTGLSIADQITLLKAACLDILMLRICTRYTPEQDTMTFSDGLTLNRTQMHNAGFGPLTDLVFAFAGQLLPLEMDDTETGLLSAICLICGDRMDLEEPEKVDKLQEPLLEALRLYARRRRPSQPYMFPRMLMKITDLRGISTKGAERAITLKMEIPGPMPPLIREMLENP
# Description: Compounds were tested in transactivation assays at the RAR α, β and γ receptors.
# Transactivation assays for RAR alpha, beta and gamma receptors:
# Transcriptional transactivation assays have been performed with gal4 fusion receptor constructs, created using each of the mouse RAR ligand-binding domains, co-transfected with the pFR-luc (Stratagene) reporter construct in COS-7 cells.
# Briefly, on day one, 96 well plates were seeded with 8000 cells per well then left to recover overnight. On day two, the cells were co-transfected with 100ng of reporter plasmid and 10ng of the appropriate receptor plasmid per well using lipofectamine (Invitrogen). On day three, the lipofectamine containing media was replaced by a DMEM without phenol red, followed by the addition of novel compounds dissolved in 1µl of DMSO to each well’s 100µl total volume. Finally, on day four, the cells were lysed and their luciferase substrate was provided by the BrightGlo reagent (Promega), the plates were then read on the MicroBeta TriLux (Perkin Elmer).
# Data for test compounds are quoted as EC50 values. Where replicate data has been generated the data are quoted as the mean EC50 from the separate experiments.
# [10] = tested on: HEPG2 cell; test: HEPG2 cell toxicity assay; assay type: cell-based; conditions: highest concentration tested 50 μM
# [11] = Human plasma protein binding; assay type: in vitro ADME
# [12] = tested on: bacterial; test: Bacterial cytotoxicity tests; assay type: cell-based; conditions: up to 100 μM
# [13] = Bi-directional permeability in MDR1-MDCK cell line; assay type: in vitro ADME; conditions: dog; MDR1-MDCK cell line
# Source text: (§1) The potential drug candidate 10 has excellent physico-chemical properties.
# [14] = tested on: P-gp (MDR1); test: Bi-directional permeability in MDR1-MDCK cell line; assay type: in vitro ADME; conditions: dog; MDR1-MDCK cell line, bi-directional; read-out: MDCK asymmetry ratio (efflux ratio)
# Source text: as §1
# [15] = tested on: MDR1-MDCK cell line; test: Bi-directional permeability in MDR1-MDCK cell line; assay type: in vitro ADME
# Source text: as §1
# [16] = target: Cyp450 2C9 (Homo sapiens, UniProt P11712); test: Cyp450 inhibition, 2C9; assay type: in vitro ADME; conditions: isoform 2C9
# Sequence of Cyp450 2C9 (P11712 whole entry, canonical isoform): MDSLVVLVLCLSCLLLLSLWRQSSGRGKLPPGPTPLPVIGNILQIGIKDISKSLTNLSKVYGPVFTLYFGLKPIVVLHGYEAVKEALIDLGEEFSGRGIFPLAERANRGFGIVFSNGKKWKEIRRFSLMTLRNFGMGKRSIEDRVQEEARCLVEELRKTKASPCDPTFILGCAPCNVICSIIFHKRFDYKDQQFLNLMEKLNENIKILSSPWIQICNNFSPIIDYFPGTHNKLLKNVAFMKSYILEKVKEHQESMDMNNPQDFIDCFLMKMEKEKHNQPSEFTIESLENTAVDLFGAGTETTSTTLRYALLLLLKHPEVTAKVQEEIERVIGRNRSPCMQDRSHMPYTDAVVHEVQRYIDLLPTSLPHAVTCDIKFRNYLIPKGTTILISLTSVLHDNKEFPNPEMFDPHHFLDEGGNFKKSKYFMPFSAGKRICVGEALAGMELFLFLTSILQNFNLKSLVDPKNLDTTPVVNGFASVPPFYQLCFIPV
# [17] = target: Cyp450 3A4 (Homo sapiens, UniProt P08684); test: Cyp450 inhibition, 3A4; assay type: in vitro ADME; conditions: isoform 3A4
# Sequence of Cyp450 3A4 (P08684 whole entry, canonical isoform): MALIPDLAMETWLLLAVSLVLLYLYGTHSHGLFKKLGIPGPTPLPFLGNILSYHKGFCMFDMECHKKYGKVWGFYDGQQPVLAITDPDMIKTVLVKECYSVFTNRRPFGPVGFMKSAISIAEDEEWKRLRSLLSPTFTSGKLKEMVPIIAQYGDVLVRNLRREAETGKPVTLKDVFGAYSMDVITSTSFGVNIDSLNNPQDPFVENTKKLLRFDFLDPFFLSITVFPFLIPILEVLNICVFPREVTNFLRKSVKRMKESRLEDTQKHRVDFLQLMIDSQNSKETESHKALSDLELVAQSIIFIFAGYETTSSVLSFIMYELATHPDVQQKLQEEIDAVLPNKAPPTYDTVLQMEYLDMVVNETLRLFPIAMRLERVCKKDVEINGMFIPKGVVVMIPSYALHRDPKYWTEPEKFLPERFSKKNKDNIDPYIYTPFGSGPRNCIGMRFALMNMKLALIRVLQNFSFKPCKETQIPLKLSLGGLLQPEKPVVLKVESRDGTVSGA
# [18] = Pharmacokinetics in rat; assay type: in vivo; parameters: Volume distribution ss: unit not given here
# [19] = target: Cyp450 2D6 (Homo sapiens, UniProt P10635); test: Cyp450 inhibition, 2D6; assay type: in vitro ADME; conditions: isoform 2D6
# Sequence of Cyp450 2D6 (P10635 whole entry, canonical isoform): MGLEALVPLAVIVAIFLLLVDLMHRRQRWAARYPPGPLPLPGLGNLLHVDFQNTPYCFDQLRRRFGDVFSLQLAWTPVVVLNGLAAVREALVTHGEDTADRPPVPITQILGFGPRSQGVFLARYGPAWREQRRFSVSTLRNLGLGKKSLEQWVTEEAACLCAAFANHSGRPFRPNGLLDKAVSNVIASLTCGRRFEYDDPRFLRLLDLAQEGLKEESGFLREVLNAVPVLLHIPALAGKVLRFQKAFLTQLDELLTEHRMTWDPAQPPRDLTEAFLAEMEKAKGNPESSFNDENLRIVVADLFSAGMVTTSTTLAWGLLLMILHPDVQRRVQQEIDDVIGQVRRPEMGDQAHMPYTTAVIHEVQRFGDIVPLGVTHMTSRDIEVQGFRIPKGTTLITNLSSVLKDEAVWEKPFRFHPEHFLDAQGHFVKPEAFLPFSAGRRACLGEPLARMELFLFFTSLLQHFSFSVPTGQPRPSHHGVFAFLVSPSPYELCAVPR
# [20] = tested on: CHO-K1 cells; test: In vitro micronucleus test; assay type: cell-based; conditions: presence and absence of S9
# Source text: Similar, negative results were obtained in an in vitro micronucleus test in CHO-K1 cells, in both the presence and absence of S9.
# [21] = Human microsomal stability (Clint); assay type: in vitro ADME
structure (smiles),measurement,setting,value
"Cc1ccc(C)c2oc(-c3nc(-c4ccc(C(=O)O)cc4)no3)cc12 [Compound 10, 4-(5-(4,7-dimethylbenzofuran-2-yl)-1,2,4-oxadiazol-3-yl)benzoic acid]","sticky tape task latency (sense and remove tape), injured forelimb vs vehicle",[1]; from week three,significantly lower latencies
same,"number of foot slips in horizontal ladder, injured forelimb vs vehicle",[1]; from week two,markedly lower
same,IC50,[2],> 25 µM
same,logD,[3],2.8
same,fold selectivity for RARβ over RARα,[4],23 fold
same,fold selectivity for RARβ over RARγ,[4],5 fold
same,EC50,[4]; read-out: RARβ potency EC50,0.00205 µM
same,solubility,[5],> 100 µM
same,t1/2,[6],2.5 h
same,clearance,"[6]; blood, iv dose 0.5 mg/kg",1.1 mL/min/kg
same,bioavailability,"[6]; in vivo, po, 3 mg/kg, dogs",> 40%
same,Volume distribution ss,[6]; iv dose 0.5 mg/kg,0.23
same,Fraction absorbed,[6]; oral 3 mg/kg vs iv 0.5 mg/kg,45%
same,Tmax,[6]; oral dose 3 mg/kg,1.0 h
same,HERG channel binding inhibition,[7],no inhibition
same,fraction unbound,[8],0.05
same,EC50,[9],0.011 µM
same,HEPG2 cell toxicity alerts,[10],completely devoid of alerts
same,fraction unbound,[11],0.02
same,bacterial cytotoxicity,[12],inactive
same,Papp,[13],28 ×10⁻⁶ cm/s
same,efflux ratio,[14],0.8
same,permeability (in words),[15],good permeability
same,MDCK asymmetry ratio (efflux ratio),"[15]; MDR1-MDCK cell line, bi-directional",close to unity
same,IC50,[16],> 25 µM
same,IC50,[17],> 25 µM
same,clearance,"[18]; blood, rat, iv dose 0.5 mg/kg",3.7 mL/min/kg
same,Tmax,"[18]; in vivo, rat, oral doses of 1, 3 and 10 mg/kg",1.7 h
same,t1/2,[18]; rat,1.4 h
same,Volume distribution ss,"[18]; rat, iv dose 0.5 mg/kg",0.41
same,Fraction absorbed,"[18]; rat, mean of 1, 3 and 10 mg/kg oral in comparison to iv 0.5 mg/kg",80 ^b %
same,oral bioavailability,[18]; rats,> 40%
same,CNS penetration: brain tissue compared to plasma,"[18]; rats, 8 h after dosing orally",nearly equivalent amounts detected in brain tissue when compared to plasma
same,IC50,[19],> 25 µM
same,in vitro micronucleus test result,[20],negative
same,stability in human microsomes (in words),[21],very high stability
same,microsomal CLint,"[21]; human microsomes, 37 °C, NADPH, 45 min, mean of 5 experiments",< 1 µL/min/mg
